Laboratory results reported in patent publication US5171837A, “Peptide capable of binding interleukin 6 and an adsorbent comprising the peptide immobilized on a carrier” (Kuraray Co., Ltd., priority 1989, dated 1992).
Non-standard residues stand in square brackets, D forms with d. Residues, ends and D or L forms follow the SMILES beside them. No end group written: not given here. *: point of attachment. X1 = NCCCCCCCCCCCCCCCCCC(=O)*; 12Ado = NCCCCCCCCCCCC(=O)O

Molecular target: T1, IL-6 (Homo sapiens, UniProt P05231)
T1 construct: purchased Genzyme Corp
T1 sequence (P05231 30-212): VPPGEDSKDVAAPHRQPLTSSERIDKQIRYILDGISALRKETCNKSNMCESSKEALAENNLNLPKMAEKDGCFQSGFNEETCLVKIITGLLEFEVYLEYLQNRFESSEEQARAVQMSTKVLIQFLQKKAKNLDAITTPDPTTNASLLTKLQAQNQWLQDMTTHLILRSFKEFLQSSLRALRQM
Experiment: Activity for inhibition of binding of IL-6 to receptor by peptide (IL-6 receptor expression cells, FITC labeled anti-IL-6 antibody)
Conditions: 5 μg of the peptide, 50 ng of IL-6, 10^5 IL-6 receptor expression cells, 4° C for one hour
Description: A human lymphocyte fraction was obtained from human peripheral blood with Ficoll-Paque (manufactured by Pharmacia-LKB). The fraction was reacted with a cultured supernatant of Epstein-Barr Virus producing cell strain B958 to transform the human lymphocytes to obtain IL-6 receptor expression cells.
1 mg of anti-human IL-6 antibody [Rabbit Anti-human Interleukin-6, manufactured by Genzyme Corp.] was dissolved in a 0.05M carbonate buffer solution (pH: 9.5) and to the resulting solution was added 10 μg of FITC [Fluorescein isothiocyanate, manufactured by Sigma Corp.]. The mixture was stirred at 4° C. overnight. The resulting solution was passed through PD-10 column (manufactured by Pharmacia-LKB) to obtain FITC labeled anti-IL-6 antibody as a firstly eluted fraction.
10^5 IL-6 receptor expression cells were suspended in 0.5 % BSA (bovine serum albumin, manufactured by Sigma Corp.)-PBS (a phosphate buffer solution containing 0.15 M sodium chloride, pH 7.4) and to the resulting suspension were added 50 ng of IL-6 (Human recombinant interleukin-6, manufactured by Genzyme Corp.) and 5 μg of the peptide obtained in any one of Examples 1 to 96. The suspension was allowed to stand at 4° C for one hour. Then, after washing the cells centrifugally with 0.5% BSA-PBS three times (1200 rpm, 5 min.), 1 μg of FITC labeled anti-IL-6 antibody was added and the mixture was allowed to stand at 4° C. for 30 minutes. After washing with 0.5% BSA-PBS three times, the intensity of fluorescence of the cells was determined. The binding inhibition activity of the peptide of each Example was evaluated, by taking the value obtained without addition of the peptide as a control and taking the value- obtained without addition of IL-6 as a blank, according to the following formula: [formula]

| Compound | Binding inhibition activity (%) |
| --- | --- |
| EEETSLPGDSVTLTCPGVEPEDKG-NH2 [Example 7] | 38 |
| KHSWNSSFYRLRFELRYRAERSKD-NH2 [Example 62] | 50 |
| NPRWLSVTWQDPHS [Example 53] | 22 |
| KKWNSSFYRLRFELRYRAERSK [Example 34] | 55 |
| DDDDDWQDPHSWNSSFYRLRFELRYRAERSKAAG-NH2 [Example 96] | 52 |
| CC(C)C[C@H](NC(=O)[C@@H](NC(=O)[C@@H](NC(=O)[C@H](CO)NC(=O)[C@H](CC(=O)O)NC(=O)CNC(=O)[C@@H]1CCCN1C(=O)[C@H](CC(C)C)NC(=O)[C@H](CO)NC(=O)[C@@H](NC(=O)CCCCCCCCCCCCCCCCCN)[C@@H](C)O)C(C)C)[C@@H](C)O)C(=O)N[C@H](C(=O)N[C@@H](CS)C(=O)N1CCC[C@H]1C(=O)NCC(=O)N[C@H](C(=O)N[C@@H](CCC(=O)O)C(=O)N1CCC[C@H]1C(=O)N[C@@H](CCC(=O)O)C(=O)N[C@@H](CC(=O)O)C(=O)NCC(=O)O)C(C)C)[C@@H](C)O [Example 4] (X1-TSLPGDSVTLTCPGVEPEDG-OH) | 42 |
| WNSSFYRLRFELRYRAERSK [Example 37] | 48 |
| PHSWNSSFYRLRFELRYRAERSKK [Example 65] | 68 |
| KKNPRWLSVTWQDPHS [Example 50] | 25 |
| EEEPHSWNSSFYRLRFELRYRAERSKKG-NH2 [Example 71] | 60 |
| CC(C)C[C@H](NC(=O)[C@H](Cc1c[nH]c2ccccc12)NC(=O)[C@H](CCCNC(=N)N)NC(=O)[C@@H]1CCCN1C(=O)[C@H](CC(N)=O)NC(=O)CCCCCCCCCCCCCCCCCN)C(=O)N[C@@H](CO)C(=O)N[C@H](C(=O)N[C@H](C(=O)N[C@@H](Cc1c[nH]c2ccccc12)C(=O)N[C@@H](CCC(N)=O)C(=O)N[C@@H](CC(=O)O)C(=O)N1CCC[C@H]1C(=O)N[C@@H](Cc1c[nH]cn1)C(=O)N[C@@H](CO)C(=O)NCC(=O)O)[C@@H](C)O)C(C)C [Example 52] (X1-NPRWLSVTWQDPHSG-OH) | 35 |
| EEEGTVHLLVDVPPEEPQLSCFRKKG-NH2 [Example 15] | 30 |
| KQALTTNKDDDNILFRDSAD-NH2 [Example 30] | 46 |
| GTVHLLVDVPPEEPQLSCFRKK [Example 9] | 30 |
| DDDDDTSLPGDSVTLTCPGVEPEDAAG-NH2 [Example 8] | 37 |
| HSWNSSFYRLRFELRYRAERSKK [Example 57] | 63 |
| CC(C)C[C@H](NC(=O)[C@H](CCC(=O)O)NC(=O)[C@H](Cc1ccccc1)NC(=O)[C@H](CCCNC(=N)N)NC(=O)[C@H](CC(C)C)NC(=O)[C@H](CCCNC(=N)N)NC(=O)[C@H](Cc1ccc(O)cc1)NC(=O)[C@H](Cc1ccccc1)NC(=O)[C@H](CO)NC(=O)[C@H](CO)NC(=O)[C@H](CC(N)=O)NC(=O)[C@H](Cc1c[nH]c2ccccc12)NC(=O)[C@H](CO)NC(=O)[C@H](Cc1c[nH]cn1)NC(=O)CCCCCCCCCCCCCCCCCN)C(=O)N[C@@H](CCCNC(=N)N)C(=O)N[C@@H](Cc1ccc(O)cc1)C(=O)N[C@@H](CCCNC(=N)N)C(=O)N[C@@H](C)C(=O)N[C@@H](CCC(=O)O)C(=O)N[C@@H](CCCNC(=N)N)C(=O)N[C@@H](CO)C(=O)N[C@@H](CCCCN)C(=O)NCC(=O)O [Example 60] (X1-HSWNSSFYRLRFELRYRAERSKG-OH) | 58 |
| DDDDDNPRWLSVTWQDPHSAAG-NH2 [Example 56] | 25 |

| Compound | Binding inhibition activity (%) |
| --- | --- |
| CC(C)C[C@H](NC(=O)[C@H](Cc1c[nH]cn1)NC(=O)[C@@H](NC(=O)[C@@H](NC(=O)CNC(=O)CCCCCCCCCCCCCCCCCN)[C@@H](C)O)C(C)C)C(=O)N[C@@H](CC(C)C)C(=O)N[C@H](C(=O)N[C@@H](CC(=O)O)C(=O)N[C@H](C(=O)N1CCC[C@H]1C(=O)N1CCC[C@H]1C(=O)N[C@@H](CCC(=O)O)C(=O)N[C@@H](CCC(=O)O)C(=O)N1CCC[C@H]1C(=O)N[C@@H](CCC(N)=O)C(=O)N[C@@H](CC(C)C)C(=O)N[C@@H](CO)C(=O)N[C@@H](CS)C(=O)N[C@@H](Cc1ccccc1)C(=O)N[C@@H](CCCNC(=N)N)C(=O)N[C@@H](CCCCN)C(=O)NCC(=O)O)C(C)C)C(C)C [Example 12] (X1-GTVHLLVDVPPEEPQLSCFRKG-OH) | 35 |
| TSLPGDSVTLTCPGVEPED [Example 5] | 28 |
| C[C@H](NC(=O)[C@@H]1CCCN1C(=O)[C@H](CO)NC(=O)[C@H](CC(N)=O)NC(=O)[C@H](CCC(N)=O)NC(=O)[C@H](Cc1ccccc1)NC(=O)[C@H](CCCCN)NC(=O)[C@H](CCCNC(=N)N)NC(=O)CCCCCCCCCCCN)C(=O)N[C@@H](CCC(=O)O)C(=O)N[C@@H](CC(=O)O)C(=O)N[C@@H](Cc1ccccc1)C(=O)N[C@@H](CCC(N)=O)C(=O)N[C@@H](CCC(=O)O)C(=O)N1CCC[C@H]1C(=O)N[C@@H](CS)C(=O)N[C@@H](CCC(N)=O)C(=O)N[C@@H](Cc1ccc(O)cc1)C(=O)N[C@@H](CO)C(=O)N[C@@H](CCC(N)=O)C(=O)N[C@@H](CCC(=O)O)C(=O)N[C@@H](CO)C(=O)N[C@@H](CCC(=O)O)C(=O)N[C@@H](CCC(=O)O)C(=O)N[C@@H](CCC(=O)O)C(=O)N[C@@H](CCC(=O)O)C(=O)N[C@@H](CCC(=O)O)C(=O)O [Example 19] (H-[12Ado]RKFQNSPAEDFQEPCQYSQESEEEEE-OH) | 62 |
| KKHSWNSSFYRLRFELRYRAERSK [Example 58] | 60 |
| KKTSLPGDSVTLTCPGVEPED [Example 2] | 35 |
| EEEQDPHSWNSSFYRLRFELRYRAERSKKG-NH2 [Example 87] | 72 |
| KKRKFQNSPAEDFQEPCQYSQES [Example 18] | 55 |
| KKQALTTNKDDDNILFRDSA [Example 26] | 42 |
| DDDDDHSWNSSFYRLRFELRYRAERSKAAG-NH2 [Example 64] | 55 |
| GTVHLLVDVPPEEPQLSCFRK [Example 13] | 25 |
| DDDDDGTVHLLVDVPPEEPQLSCFRKAAG-NH2 [Example 16] | 31 |
| KGTVHLLVDVPPEEPQLSCFRKD-NH2 [Example 14] | 32 |
| EEEHSWNSSFYRLRFELRYRAERSKKG-NH2 [Example 63] | 51 |
| RKFQNSPAEDFQEPCQYSQESK [Example 17] | 60 |
| CC(C)C[C@H](NC(=O)[C@H](CCC(=O)O)NC(=O)[C@H](Cc1ccccc1)NC(=O)[C@H](CCCNC(=N)N)NC(=O)[C@H](CC(C)C)NC(=O)[C@H](CCCNC(=N)N)NC(=O)[C@H](Cc1ccc(O)cc1)NC(=O)[C@H](Cc1ccccc1)NC(=O)[C@H](CO)NC(=O)[C@H](CO)NC(=O)[C@H](CC(N)=O)NC(=O)[C@H](Cc1c[nH]c2ccccc12)NC(=O)[C@H](CO)NC(=O)[C@H](Cc1c[nH]cn1)NC(=O)[C@@H]1CCCN1C(=O)[C@H](CC(=O)O)NC(=O)CCCCCCCCCCCN)C(=O)N[C@@H](CCCNC(=N)N)C(=O)N[C@@H](Cc1ccc(O)cc1)C(=O)N[C@@H](CCCNC(=N)N)C(=O)N[C@@H](C)C(=O)N[C@@H](CCC(=O)O)C(=O)N[C@@H](CCCNC(=N)N)C(=O)N[C@@H](CO)C(=O)N[C@@H](CCCCN)C(=O)N[C@@H](CCC(=O)O)C(=O)N[C@@H](CCC(=O)O)C(=O)N[C@@H](CCC(=O)O)C(=O)N[C@@H](CCC(=O)O)C(=O)N[C@@H](CCC(=O)O)C(=O)O [Example 75] (H-[12Ado]DPHSWNSSFYRLRFELRYRAERSKEEEEE-OH) | 63 |
| QDPHSWNSSFYRLRFELRYRAERSK [Example 85] | 60 |
| KKWQDPHSWNSSFYRLRFELRYRAERSK [Example 90] | 71 |
| CC[C@H](C)[C@H](NC(=O)[C@H](CC(N)=O)NC(=O)[C@H](CC(=O)O)NC(=O)[C@H](CC(=O)O)NC(=O)[C@H](CC(=O)O)NC(=O)[C@H](CCCCN)NC(=O)[C@H](CC(N)=O)NC(=O)[C@@H](NC(=O)[C@@H](NC(=O)[C@H](CC(C)C)NC(=O)[C@H](C)NC(=O)[C@H](CCC(N)=O)NC(=O)CCCCCCCCCCCN)[C@@H](C)O)[C@@H](C)O)C(=O)N[C@@H](CC(C)C)C(=O)N[C@@H](Cc1ccccc1)C(=O)N[C@@H](CCCNC(=N)N)C(=O)N[C@@H](CC(=O)O)C(=O)N[C@@H](CO)C(=O)N[C@@H](C)C(=O)N[C@@H](CCC(=O)O)C(=O)N[C@@H](CCC(=O)O)C(=O)N[C@@H](CCC(=O)O)C(=O)N[C@@H](CCC(=O)O)C(=O)N[C@@H](CCC(=O)O)C(=O)O [Example 27] (H-[12Ado]QALTTNKDDDNILFRDSAEEEEE-OH) | 48 |
